# Literature values as cited in Sander's compilation of Henry's law constants (doi:10.1021/je900477x).
# Several values for one entry are separate records, joined by “and”; a condition that tells them apart may be missing. Identical values can stand only once.
# Experiment: Henry solubility constant Hcp at 298.15 K (mol/(m3 Pa))
# Settings: reference: Ma et al. (2010b); cited value
row,Compound,Henry solubility constant Hcp
1,"c1ccc2c(c1)Cc1ccccc1-2 [2,3-benzindene]",0.11
2,c1cc2c3c(cccc3c1)CC2 [acenaphthene],0.072 and 0.07
3,C1=Cc2cccc3cccc1c23 [acenaphthylene],0.082 and 0.1
4,c1ccc2cc3ccccc3cc2c1 [anthracene],0.2
5,c1ccc2c(c1)cc1ccc3cccc4ccc2c1c34 [benzo[a]pyrene],20 and 13
6,c1ccc2c(c1)-c1cccc3c1c-2cc1ccccc13 [benzo[b]fluoranthene],15
7,c1cc2ccc3ccc4ccc5cccc6c(c1)c2c3c4c56 [benzo[ghi]perylene],30 and 24
8,c1ccc2c(c1)-c1cccc3cccc-2c13 [benzo[jk]fluorene],0.69 and 0.75
9,c1ccc2cc3c(cc2c1)-c1cccc2cccc-3c12 [benzo[k]fluoranthene],17 and 18
10,c1ccc2c(c1)ccc1c3ccccc3ccc21 [chrysene],2.3 and 2.7
11,"c1ccc2c(c1)-c1ccc3ccc4cccc5cc-2c1c3c45 [indeno[1,2,3-cd]pyrene]",29 and 20
12,c1ccc2ccccc2c1 [naphthalene],0.021 and 0.022
13,c1ccc2c(c1)ccc1ccccc12 [phenanthrene],0.23
